{
  "source": "patent US10093629B2",
  "about": "“Heterocyclic compounds and their use as retinoid-related orphan receptor (ROR) gamma-T inhibitors” (Takeda Pharmaceutical Company Limited, priority 2014, dated 2018)",
  "key": {"[1]": {"tested_on": "IL-17 production in human blood", "experiment": "Effect on IL-17 production in human blood", "format": "cell-based", "conditions": "72 h; 10 μM test compound; human peripheral blood, IL-23 and Dynabeads stimulation, 3 days; read-out: percent inhibition at 10 μM (IL-17 production)", "how_it_was_run": "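Heparinized healthy-donor whole blood pre-incubated with compound 30 min at 37° C, then stimulated with IL-23 (added as 100 ng/mL solution) plus Dynabeads Human for 3 days at 37° C. Supernatant IL-17 measured by ELISA; values given as percent inhibition at 10 μM compound.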"}, "IL-17A gene expression": {"tested_on": "IL-17A gene expression", "experiment": "Effect on IL-23-induced cytokine expression in mice", "format": "in vivo, mouse", "conditions": "3 mg/kg oral, 30 min before and 8 hr after IL-23; ear of Balb/c mice; versus the negative control group"}, "[2]": {"tested_on": "IL-23-induced mouse psoriasis model", "experiment": "IL-23-induced mouse psoriasis model", "format": "in vivo", "conditions": "3 mg/kg oral twice daily, Balb/c mice, versus the negative control group", "procedure": "Effect in an IL-23-Induced Mouse Psoriasis Model\nMouse IL-23 (500 ng/15 μL, R&D) or PBS (15 μL, negative control group) was administered intradermally in the ear of Balb/c mice (Charles River Japan, male, 7 weeks old) 5 times every other days. Seven hr after IL-23 administration at 8 days after the initial administration (final administration), the mice were anesthetized with isoflurane, and ear thickness was measured with calipers. After the ear thickness was measured, the ear was resected, tissue 8 mm in diameter was punched from an area centering on the IL-23 injection site, and the tissue was weighed. The punched ear tissue was cut in half, and one half was immersion-fixed in 10% neutral buffer formalin solution for use in histopathological evaluation. The other half was immersed in RNAlater (QIAGEN) for at least 18 hr for use in an evaluation of the IL-17A mRNA expression level. The test compound was suspended in 0.5% methylcellulose and administered orally twice daily on consecutive days from 30 min before the initial IL-23 administration to 30 min before the final IL-23 administration.\nThe change in ear thickness in this model was evaluated by calculating the difference in measured thickness between before IL-23 administration and 7 hr after the final IL-23 administration. In addition, the formalin-fixed tissue was embedded and sectioned, then stained with hematoxylin-eosin. The degree of acanthosis was then evaluated qualitatively by microscopy (classified with a score of 0 to 4). RNA extraction from the ear tissue and quantitative PCR were performed as follows. As described above, ear tissue treated with RNAlater (QIAGEN) was homogenized in 350 μL of RLT buffer (RNeasy mini kit, QIAGEN) and treated (55° C., 10 min) with Proteinase K (QIAGEN). Total RNA was then extracted according to the RNeasy mini kit protocol. The RNA thus obtained was reverse transcribed into cDNA using the High-Capacity RNA-to-cDNA kit (Applied Biosystems), and the expression of each gene was measured by real-time PCR (Viia7™, Applied Biosystems). The PCR buffer used was TaqMan Fast Advanced Master Mix (Applied Biosystems), and TaqMan Gene Expression Assays (Applied Biosystems) Mm00439618_m1 (IL-17A) and 4352341E (β-actin) were used to detect the genes. The IL-17A gene expression level was normalized to the β-actin gene expression level, and the percent inhibition of IL-17A gene expression with the test compound was then calculated.\nThe results (percent inhibition of ear thickness, acanthosis score and IL-17A gene expression with oral administration of the test compound) measured by the above-mentioned method are shown in Table 10."}, "[3]": {"tested_on": "T cell-transferred mouse colitis model", "experiment": "T cell-transferred mouse colitis model", "format": "in vivo", "conditions": "3 mg/kg oral twice daily; SCID mice, 21 days after cell transfer; versus the negative control group", "source_text": "Effect in a T Cell-Transferred Mouse Colitis Model\nBalb/c mice (Charles River Japan, female, 8 weeks old) were euthanized, and the spleens were resected, mashed in mesh, and passed through cell strainer to prepare a suspension of splenic cells. The mononuclear cell fraction in the splenic cells was isolated by density-gradient centrifugation, and subjected to hemolysis treatment with ammonium chloride buffer solution (Immuno-Biological Laboratories, Co., Ltd.). The naive T-cells were purified using CD4+CD62L+ T Cell Isolation Kit II (Miltenyi Biotec). The naive T-cells (2×10^5 cells/mouse) were intravenously transferred into SCIDmice (CLEA Japan, female, 8 weeks old). The compound was suspended in 0.5% methyl cellulose, and the suspension was orally administered twice daily on consecutive days from the same evening of the cell transfer. The mice were blinded 20 days after the cell transfer, and the symptom of the stool on floorcloth under blind was evaluated by scores of 1 to 4 (1: normal, 2: loose stool, 3: diarrhea (formed), 4: diarrhea (unformed)) 21 days after the cell transfer. […] The large intestine was washed with saline, and the weight was measured.\nThe results (percent inhibition of intestinal tract weight and diarrhea score with oral administration of the test compound) measured by the above-mentioned method are shown in Table 11."}, "mouse EAE model": {"tested_on": "mouse EAE model", "experiment": "Mouse EAE model", "format": "in vivo", "conditions": "3 mg/kg oral; C57BL/6J mice; integration value of clinical score for 28 days; versus the negative control group", "procedure": "Effect in a Mouse EAE Model\n. C57BL/6J mice (10 weeks old, female, Charles River Japan) were grouped based on the body weight, and the MOG emulsion was intradermally administered at two point of the joint of dorsal hindlimb so that the dose was 100 μL/site, 200 μL/mouse. In addition, Pertussis toxin (Merck) was intraperitoneally administered twice on the sensitization day and 2 days thereafter in the dose of 400 ng/200 μL/mouse. The body weight was measured twice a week before onset and everyday (excluding holiday) after onset from the sensitization day. The clinical score was evaluated by the following standard scores of 0 to 5 (0: normal, 0.5: partial paralysis of tail, 1: complete paralysis of tail, 2: partial paralysis of hindlimb, 3: paralysis of lower body, 4: partial paralysis of forelimb, 5: paralysis of both forelimbs or death) by observation everyday (excluding holiday) after the beginning of onset.\nThe percent inhibition of the clinical score of the test compound administration group relative to that of the control group was calculated using integration value of the clinical score for 28 days.\nThe results (percent inhibition of clinical score with oral administration of the test compound) measured by the above-mentioned method are shown in Table 12."}},
  "data": [
    {"compound": "COc1ccc2c(n1)CCN(C(=O)[C@H]1C[C@@H](CC(=O)O)C1)[C@H]2C(=O)Nc1cc(F)c2c(c1)CCC2(C)C", "note": "[Example 15, (cis-3-(((5R)-5-((7-fluoro-1,1-dimethyl-2,3-dihydro-1H-inden-5-yl)carbamoyl)-2-methoxy-7,8-dihydro-1,6-naphthyridin-6(5H)-yl)carbonyl)cyclobutyl)acetic acid]", "values": [
      {"measurement": "inhibition at 10 µM", "setting": "[1]", "value": 94, "unit": "%"},
      {"measurement": "percent inhibition of IL-17A gene expression", "setting": "IL-17A gene expression", "value": 99, "unit": "%"},
      {"measurement": "percent inhibition of acanthosis score", "setting": "[2]", "value": 53, "unit": "%"},
      {"measurement": "percent inhibition of ear thickness", "setting": "[2]", "value": 61, "unit": "%"},
      {"measurement": "percent inhibition of IL-17A expression", "setting": "[2]; ear tissue", "value": 93, "unit": "%"},
      {"measurement": "percent inhibition of diarrhea score", "setting": "[3]", "value": 81, "unit": "%"},
      {"measurement": "percent inhibition of intestinal tract weight", "setting": "[3]", "value": 58, "unit": "%"},
      {"measurement": "percent inhibition of clinical score", "setting": "mouse EAE model", "value": 64, "unit": "%"}
    ]}
  ]
}
